Assay results: patent US4497806A, “Triorganotin compounds, antifungal and antibacterial compositions containing same, and method of using same” (priority 1983, dated 1985)

Experiments:
[1] = system: Fusarium moniliforme (ATCC 10052); assay: Antifungal activity, agar plate growth inhibition; format: cell-based; details: 14 days
Description: (§1) Dilutions of the sterile solutions were prepared and added to liquified potato dextrose agar (Difco) to yield final concentrations of 100, 10 and 1 μg/ml. The agar, containing the appropriate organotin compound, was poured into sterile petri dishes and allowed to solidify over night. The agar surface was inoculated centrally with a 2 mm^2 portion of the growth from a ten-day-old culture of each fungus of the group consisting of Aspergillus niger, Chaetomium globosum, Cladosporium carpophilum, Fusarium moniliforme, Myrotheium verrucaria, Penicillium notatum, Rhizopus stolonifer, Trichoderma viride and Trichophyton mentagrophytes, or from a two-day-old culture of Saccharomyces cerevisiae. Inoculated plates were incubated for 14 days and observations of growth inhibition were made by measuring the diameters of the colonies present on the agar surface.
(§2) A solvent was included in all evaluations, as were growth controls for all fungal species.
(§3) The following compounds were tested for comparative purposes: [drawing 6] These compounds were tested for antifungal activity in the same manner as the triorganotin 5-nitro-2-furoates of the present invention.

[2] = system: Trichoderma viride (ATCC 8678); assay: Antifungal activity, agar plate growth inhibition; format: cell-based; details: 14 days
Description: as §1, §2, §3

[3] = system: Trichophyton mentagrophytes (ATCC 9129); assay: Antifungal activity, agar plate growth inhibition; format: cell-based; details: 14 days
Description: as §1, §2, §3

[4] = system: Penicillium notatum (ATCC 9179); assay: Antifungal activity, agar plate growth inhibition; format: cell-based; details: 14 days
Description: as §1, §2, §3

[5] = system: Myrothecium verrucaria (ATCC 9095); assay: Antifungal activity, agar plate growth inhibition; format: cell-based; details: 14 days
Description: as §1, §2, §3

[6] = system: Saccharomyces cerevisiae (ATCC 9896); assay: Antifungal activity, agar plate growth inhibition; format: cell-based; details: 14 days
Description: as §1, §2, §3

[7] = system: Chaetomium globosum (ATCC 6205); assay: Antifungal activity, agar plate growth inhibition; format: cell-based; details: 14 days
Description: as §1, §2, §3

[8] = system: Rhizopus stolonifer (ATCC 10404); assay: Antifungal activity, agar plate growth inhibition; format: cell-based; details: 14 days
Description: as §1, §2, §3

[9] = system: Aspergillus niger (ATCC 12845); assay: Antifungal activity, agar plate growth inhibition; format: cell-based; details: 14 days
Description: as §1, §2, §3

Staphylococcus aureus = assay: Antibacterial activity, agar growth inhibition; format: cell-based
Description: The antibacterial activity of Compounds A-E was investigated by means of incorporating the compounds into sterile tryptic soy agar (Difco) at levels of 100, 10, and 1 μg/ml. The agar was also […] with a 1:100 dilution of an 18-hour old culture of the desired bacterial species in sterile distilled water. The plates were incubated for 24 hours at 37° C. with each bacterial strain. Observations of bacterial growth inhibition were made following the appropriate incubation period.
(§4) A solvent control was included in all evaluations, as were growth controls for all bacteria species.
Comparative compounds 1-5 above were employed for comparison purposes. These compounds were tested for antibacterial activity in the same manner as the triorganotin 5-nitro-2-furoates of the present invention.
(§5) All of the bacteria tested were obtained from the culture collection of the Department of Biological Sciences, St. John's University.
The ability of Compound B to inhibit the growth of other Gram-positive bacteria, using the same test procedures as described for the antibacterial activity determined in Table III above, is illustrated in Table IV below.

[10] = system: Cladosporium carpophilium (ATCC 12117); assay: Antifungal activity, agar plate growth inhibition; format: cell-based, Cladosporium carpophilum; details: 14 days
Description: as §1, §2, §3

test fungi = assay: Antifungal activity, summary over the 10 test fungi; format: cell-based
Description: as §1, §2, §3

Pseudomonas aeruginosa = assay: Antibacterial activity, agar growth inhibition; format: cell-based; details: Gram-negative, 24 hours at 37° C.
Description: (§6) The agar was also needed with a 1:100 dilution of an 18-hour old culture of the desired bacterial species in sterile distilled water. The plates were incubated for 24 hours at 37° C. with each bacterial strain. Observations of bacterial growth inhibition were made following the appropriate incubation period.
as §4
(§7) These compounds were tested for antibacterial activity in the same manner as the triorganotin 5-nitro-2-furoates of the present invention.
as §5

Bacillus megaterium = assay: Antibacterial activity, agar growth inhibition; format: cell-based; details: Gram-positive
Description: as §6, §4, §7, §5

Escherichia coli = assay: Antibacterial activity, agar growth inhibition; format: cell-based; details: Gram-negative, 24 hours at 37° C.
Description: as §6, §4, §7, §5

Substance: Triphenyltin 5-nitro-2-furoate [Compound A]
- growth inhibition ([1]; 1 μg/ml): +
- growth inhibition ([1]; 10 μg/ml): +
- growth inhibition ([1]; 100 μg/ml): +
- growth inhibition ([2]; 1 μg/ml): +
- growth inhibition ([2]; 10 μg/ml): +
- growth inhibition ([2]; 100 μg/ml): +
- growth inhibition ([3]; 1 μg/ml): +
- growth inhibition ([3]; 10 μg/ml): 2+
- growth inhibition ([3]; 100 μg/ml): 2+
- growth inhibition ([4]; 1 μg/ml): +
- growth inhibition ([4]; 10 μg/ml): 2+
- growth inhibition ([4]; 100 μg/ml): 2+
- growth inhibition ([5]; 1 μg/ml): +
- growth inhibition ([5]; 10 μg/ml): 2+
- growth inhibition ([5]; 100 μg/ml): 2+
- growth inhibition ([6]; 1 μg/ml): -
- growth inhibition ([6]; 10 μg/ml): +
- growth inhibition ([6]; 100 μg/ml): +
- growth inhibition ([7]; 1 μg/ml): +
- growth inhibition ([7]; 10 μg/ml): +
- growth inhibition ([7]; 100 μg/ml): +
- growth inhibition ([8]; 1 μg/ml): +
- growth inhibition ([8]; 10 μg/ml): +
- growth inhibition ([8]; 100 μg/ml): +
- growth inhibition ([9]; 1 μg/ml): +
- growth inhibition ([9]; 10 μg/ml): 2+
- growth inhibition ([9]; 100 μg/ml): 2+
- minimum concentration for complete growth inhibition (Staphylococcus aureus; Gram-positive): 1 µg/mL
- activity relative to Comparative Compounds 2, 4 and 5 (Staphylococcus aureus; towards Staphylococcus aureus): identical
- growth inhibition ([10]; 1 μg/ml): 2+
- growth inhibition ([10]; 10 μg/ml): 2+
- growth inhibition ([10]; 100 μg/ml): 2+
- partial growth inhibition of test fungi (in words) (test fungi; 1 μg/ml): partially inhibiting the growth of all of the test fungi, except Saccharomyces cerevisiae
- number of test fungi with growth completely inhibited (test fungi; 10 μg/ml): 5 of the 10 test fungi
- antifungal activity, rank among the triorganotin 5-nitro-2-furoates (test fungi; among Compounds A-E): second best antifungal agent
- growth inhibition (Pseudomonas aeruginosa; 1 μg/ml): -
- growth inhibition (Pseudomonas aeruginosa; 10 μg/ml): -
- growth inhibition (Pseudomonas aeruginosa; 100 μg/ml): -
- minimum concentration for complete growth inhibition (Bacillus megaterium): 1 µg/mL
- growth inhibition (Escherichia coli; 1 μg/ml): -
- growth inhibition (Escherichia coli; 10 μg/ml): -
- growth inhibition (Escherichia coli; 100 μg/ml): -
